Among the data in PubChem BioAssay (NCI) are TGI values, retold here.

Common to all, as to assay: NCI-60 cell line screen, 48 h
For assay [1], the system named is A549 NSCLC.
The test system of assay [2] is IGROV1 ovarian.
In assay [3] the test system is MCF7 breast.
Assay [4] has as its system OVCAR-5 ovarian.
The subject of assay [5] is SF-295 CNS.
In assay [6] the test system is SN12C renal.
The test system of assay [7] is SNB-19 CNS.
The subject of assay [8] is SNB-75 CNS.
The subject of assay [9] is T-47D breast.
The test system of assay [10] is TK-10 renal.

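Each compound was tested at five concentrations against cells in 96-well plates for 48 hours. TGI: concentration producing complete growth inhibition.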

Take `Cn1c(-c2cccs2)cc(-c2ccsc2)c1-c1ccsc1`: the TGI in assay [1], in assay [2], in assay [3], in assay [4], in assay [5] and in assay [6] was more than 100 µM in each case. Moreover, the TGI was more than 100 µM in [7], more than 100 µM in [8], 59.6 µM in assay [9] and more than 100 µM in assay [10].

Take `COc1ccc(C(OCC2OC(n3ccc(Oc4c(F)c(F)c(F)c(F)c4F)nc3=O)CC2OP(OCCC#N)N(C(C)C)C(C)C)(c2ccccc2)c2ccc(OC)cc2)cc1` (stereo not given): the TGI in [1], in assay [2], in [3], in assay [4], in assay [5] and in [6] was more than 100 µM throughout. In addition, the TGI in assay [7], in [8], in assay [9] and in assay [10] was more than 100 µM in each case.

Take `O=C(CSCC(=O)N/N=C\c1cccc(Br)c1)N/N=C\c1cccc(Br)c1`: the TGI is 31.5 µM in assay [1]; 47 µM in [2]; more than 100 µM in assay [3]; 33.6 µM in assay [4]; 29.9 µM in assay [5]; 35.2 µM in assay [6]. The TGI in assay [7] is more than 100 µM; in [8] it was 39.4 µM; in assay [9], 54.6 µM; in assay [10], 24.8 µM.
